Assay results reported in patent publication US8987314B2, “Amide, urea or sulfone amide linked benzothiazole inhibitors of endothelial lipase” (Bristol-Myers Squibb Company, priority 2012, dated 2015).
pIC50: −log10 of the molar value. Like-named read-outs stand apart in the source and are kept apart here.

Experiments:
[1] = target: hepatic lipase (HL) (Homo sapiens (Human), UniProt P11150); test: HL assay: hepatic lipase activity with fluorescent substrate A10070 in DMPG vesicles; type: biochemical
In short: (§1)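 Substrate A10070 sits in sonicated DMPG vesicles at 0.11 mole fraction. Lipase and compound preincubated 30 min, 37° C, in HEPES pH 8.0 buffer with CaCl2.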

[2] = target: Endothelial lipase (EL) (Homo sapiens (Human), UniProt Q9Y5X9); test: EL assay: endothelial lipase activity with fluorescent substrate A10070 in DMPG vesicles; type: biochemical
In short: as §1

[3] = HL partially purified from conditioned media of COS cells, 30 min incubation with compound at 37° C., A10070/DMPG vesicles
[4] = EL from conditioned media of HT-1080 cells, 30 min incubation with compound at 37° C., A10070/DMPG vesicles

Chain of hepatic lipase (HL) (P11150 23-499, species assumed): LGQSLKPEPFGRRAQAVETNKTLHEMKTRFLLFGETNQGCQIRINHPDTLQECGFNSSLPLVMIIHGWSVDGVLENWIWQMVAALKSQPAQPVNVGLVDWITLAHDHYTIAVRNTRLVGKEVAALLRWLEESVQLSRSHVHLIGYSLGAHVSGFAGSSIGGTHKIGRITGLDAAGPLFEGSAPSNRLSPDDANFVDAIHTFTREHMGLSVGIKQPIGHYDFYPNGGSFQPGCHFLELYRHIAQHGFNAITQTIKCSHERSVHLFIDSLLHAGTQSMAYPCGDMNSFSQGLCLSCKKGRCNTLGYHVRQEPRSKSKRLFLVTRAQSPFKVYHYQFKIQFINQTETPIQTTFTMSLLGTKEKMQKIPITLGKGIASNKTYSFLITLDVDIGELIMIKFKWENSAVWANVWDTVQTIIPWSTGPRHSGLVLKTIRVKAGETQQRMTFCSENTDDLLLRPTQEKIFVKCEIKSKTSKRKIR
Chain of Endothelial lipase (EL) (Q9Y5X9 21-500): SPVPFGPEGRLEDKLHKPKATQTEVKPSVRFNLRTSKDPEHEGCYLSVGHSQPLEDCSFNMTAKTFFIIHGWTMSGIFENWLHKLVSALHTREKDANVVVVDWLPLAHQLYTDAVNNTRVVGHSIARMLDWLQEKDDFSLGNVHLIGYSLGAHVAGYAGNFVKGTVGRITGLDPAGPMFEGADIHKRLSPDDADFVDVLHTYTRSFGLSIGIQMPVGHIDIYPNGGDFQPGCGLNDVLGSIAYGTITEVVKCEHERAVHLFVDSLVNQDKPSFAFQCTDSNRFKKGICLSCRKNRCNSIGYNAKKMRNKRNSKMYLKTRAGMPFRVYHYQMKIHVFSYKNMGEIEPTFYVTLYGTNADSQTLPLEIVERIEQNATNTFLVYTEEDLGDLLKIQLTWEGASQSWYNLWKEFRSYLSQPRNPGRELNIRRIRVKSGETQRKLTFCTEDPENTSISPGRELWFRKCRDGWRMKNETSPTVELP

pIC50 [1] | pIC50 [2] | pIC50 [1, 3] | pIC50 [2, 4] | SMILES
6.91 | 7.96 | – | – | Cc1nnc(CNC(=O)C(c2nc3cc(C)c(-c4ccc5c(c4)CCC(=O)N5)cc3s2)S(C)(=O)=O)o1 (centres unmarked) [Example B85, N-((5-methyl-1,3,4-oxadiazol-2-yl)methyl)-2-(5-methyl-6-(2-oxo-1,2,3,4-tetrahydro-6-quinolinyl)-1,3-benzothiazol-2-yl)-2-(methylsulfonyl)acetamide]
8.59 | 9.30 | – | – | COc1ccc(-c2ccc3sc(C(C(=O)NCCS(N)(=O)=O)S(C)(=O)=O)nc3c2)cn1 (centres unmarked) [Example B87, 2-(5-(6-methoxy-3-pyridinyl)-1,3-benzothiazol-2-yl)-2-(methylsulfonyl)-N-(2-sulfamoylethyl)acetamide]
8.66 | 9.30 | – | – | COc1cc(-c2ccc3sc(C(C(=O)NCCS(N)(=O)=O)S(C)(=O)=O)nc3c2)ccn1 (centres unmarked) [Example B88, 2-(5-(2-methoxy-4-pyridinyl)-1,3-benzothiazol-2-yl)-2-(methylsulfonyl)-N-(2-sulfamoylethyl)acetamide]
7.15 | 8.36 | – | – | CS(=O)(=O)C(C(=O)NCCS(N)(=O)=O)c1nc2cc(-c3cncnc3)ccc2s1 (centres unmarked) [Example B89, 2-(methylsulfonyl)-2-(5-(5-pyrimidinyl)-1,3-benzothiazol-2-yl)-N-(2-sulfamoylethyl)acetamide]
7.00 | > 8.00 | – | – | COCCn1cc(-c2ccc3sc(C(C(=O)NCCS(N)(=O)=O)S(C)(=O)=O)nc3c2)cn1 (centres unmarked) [Example B90, 2-(5-(1-(2-methoxyethyl)-1H-pyrazol-4-yl)-1,3-benzothiazol-2-yl)-2-(methylsulfonyl)-N-(2-sulfamoylethyl)acetamide]
5.74 | > 8.00 | – | – | CS(=O)(=O)C(C(=O)NCCS(N)(=O)=O)c1nc2cc(-c3cnn(CCN4CCOCC4)c3)ccc2s1 (centres unmarked) [Example B91, 2-(methylsulfonyl)-2-(5-(1-(2-(4-morpholinyl)ethyl)-1H-pyrazol-4-yl)-1,3-benzothiazol-2-yl)-N-(2-sulfamoylethyl)acetamide]
> 8.00 | > 8.00 | – | – | CS(=O)(=O)C(C(=O)NCCS(N)(=O)=O)c1nc2cc(-c3ccccc3)ccc2s1 (centres unmarked) [Example B92, 2-(methylsulfonyl)-2-(5-phenyl-1,3-benzothiazol-2-yl)-N-(2-sulfamoylethyl)a-cetamide]
8.15 | 9.30 | – | – | COCCNC(=O)c1ccc(-c2ccc3sc(C(C(=O)NCCS(N)(=O)=O)S(C)(=O)=O)nc3c2)cc1 (centres unmarked) [Example B93, N-(2-methoxyethyl)-4-(2-(1-(methylsulfonyl)-2-oxo-2-((2-sulfamoylethyl)a-mino)ethyl)-1,3-benzothiazol-5-yl)ben-zamide]
7.15 | > 8.00 | – | – | CS(=O)(=O)C(C(=O)NCCS(N)(=O)=O)c1nc2cc(-c3ccnc(F)c3)ccc2s1 (centres unmarked) [Example B95, 2-[5-(2-fluoro-4-pyridinyl)-1,3-benzothiazol-2-yl]-2-(methylsulfonyl)-N-(2-sulfamoylethyl)acetamide]
6.60 | 7.57 | – | – | Cc1nnc(CNC(=O)C(c2nc3cc(C)c(-c4ccc(C(=O)N5CCOCC5)cc4)cc3s2)S(=O)(=O)Cc2ccccc2)o1 (centres unmarked) [Example B96, 2-(benzylsulfonyl)-2-(5-methyl-6-(4-(4-morpholinylcarbonyl)phen-yl)-1,3-benzothiazol-2-yl)-N-((5-methyl-1,3,4-oxadiazol-2-yl)methyl)a-cetamide]
7.24 | 7.62 | – | – | COc1ccc(-c2cc3sc(C(C(=O)NCc4nnc(C)o4)S(=O)(=O)Cc4ccccc4)nc3cc2C)cn1 (centres unmarked) [Example B97, 2-(benzylsulfonyl)-2-(6-(6-methoxy-3-pyridinyl)-5-methyl-1,3-benzothiazol-2-yl)-N-((5-methyl-1,3,4-oxadiazol-2-yl)methyl)a-cetamide]
– | – | 6.33 | > 8.00 | CS(=O)(=O)C(C(=O)NCCS(N)(=O)=O)c1nc2ccc(-c3cnn(C4CCNCC4)c3)cc2s1 (centres unmarked) [Example B98, 2-(Methylsulfonyl)-2-(6-(1-(4-piperidinyl)-1H-pyrazol-4-yl)-1,3-benzothiazol-2-yl)-N-(2-sulfamoylethyl)acetamide]

Continued, compound first:

SMILES | pIC50 [1] | pIC50 [2] | pIC50 [1, 3] | pIC50 [2, 4]
CS(=O)(=O)C(C(=O)NCCS(N)(=O)=O)c1nc2cc(-c3ccc(C(=O)N4CCOCC4)cc3)ccc2s1 (centres unmarked) [Example B86, 2-(methylsulfonyl)-2-(5-(4-(4-morpholinylcarbonyl)phen-yl)-1,3-benzothiazol-2-yl)-N-(2-sulfamoylethyl)a-cetamide] | 6.31 | > 8.00 | – | –
CS(=O)(=O)C(C(=O)NCCS(N)(=O)=O)c1nc2cc(-c3ccc(C(=O)NCCO)cc3)ccc2s1 (centres unmarked) [Example B94, N-(2-hydroxyethyl)-4-(2-(1-(methylsulfonyl)-2-oxo-2-((2-sulfamoylethyl)a-mino)ethyl)-1,3-benzothiazol-5-yl)ben-zamide] | 6.91 | > 8.00 | – | –
COCCNC(=O)c1ccc(-c2ccc3nc(C(C(=O)NCCS(N)(=O)=O)S(=O)(=O)Cc4ccccc4)sc3c2)cc1 (centres unmarked) [Example B99, 4-(2-(1-(Benzylsulfonyl)-2-oxo-2-((2-sulfamoylethyl)amino)ethyl)-1,3-benzothiazol-6-yl)-N-(2-methoxyethyl)benzamide] | – | – | 7.26 | > 8.00
COCCS(=O)(=O)C(C(=O)NCCS(N)(=O)=O)c1nc2ccc(-c3ccc(C(=O)N4CCOCC4)cc3)cc2s1 (centres unmarked) [Example B100, 2-((2-methoxyethyl)sulfonyl)-2-(6-(4-(4-morpholinyl-carbonyl)phenyl)-1,3-benzothiazol-2-yl)-N-(2-sulfamoylethyl)acetamide] | 5.91 | > 8.00 | – | –
CS(=O)(=O)C(C(=O)NCCS(N)(=O)=O)c1nc2ccc(-c3ccc(C(=O)N4CCOCC4)cc3)cc2s1 (centres unmarked) [Example B101, 2-(methylsulfonyl)-2-(6-(4-(4-morpholinylcarbonyl)phen-yl)-1,3-benzothiazol-2-yl)-N-(2-sulfamoylethyl)a-cetamide] | 7.20 | > 8.00 | – | –
NS(=O)(=O)CCNC(=O)C(c1nc2ccc(-c3ccc(C(=O)N4CCOCC4)cc3)cc2s1)S(=O)(=O)Cc1ccccc1 (centres unmarked) [Example B102, 2-(benzylsulfonyl)-2-(6-(4-(4-morpholinylcarbonyl)phen-yl)-1,3-benzothiazol-2-yl)-N-(2-sulfamoylethyl)a-cetamide] | 5.28 | 7.74 | – | –
COCCS(=O)(=O)C(C(=O)NCCS(N)(=O)=O)c1nc2ccc(-c3ccccc3)cc2s1 (centres unmarked) [Example B103, 2-((2-methoxyethyl)sul-fonyl)-2-(6-phenyl-1,3-benzothiazol-2-yl)-N-(2-sulfamoylethyl)acetemide] | > 8.00 | > 8.00 | – | –
NS(=O)(=O)CCNC(=O)C(c1nc2ccc(-c3ccccc3)cc2s1)S(=O)(=O)Cc1ccccc1 (centres unmarked) [Example B104, 2-(benzylsulfonyl)-2-(6-phenyl-1,3-benzothiazol-2-yl)-N-(2-sulfamoylethyl)a-cetamide] | > 8.00 | > 8.00 | – | –
CCS(=O)(=O)C(C(=O)NCCS(N)(=O)=O)c1nc2ccc(-c3ccccc3)cc2s1 (centres unmarked) [Example B105, 2-(ethylsulfonyl)-2-(6-phenyl-1,3-benzothiazol-2-yl)-N-(2-sulfamoylethyl)a-cetamide] | > 8.00 | > 8.00 | – | –
CC(C)CS(=O)(=O)C(C(=O)NCCS(N)(=O)=O)c1nc2ccc(-c3ccccc3)cc2s1 (centres unmarked) [Example B106, 2-(isobutylsulfonyl)-2-(6-phenyl-1,3-benzothiazol-2-yl)-N-(2-sulfamoylethyl)a-cetamide] | > 8.00 | > 8.00 | – | –
CCCS(=O)(=O)C(C(=O)NCCS(N)(=O)=O)c1nc2ccc(-c3ccccc3)cc2s1 (centres unmarked) [Example B107, 2-(6-phenyl-1,3-benzothiazol-2-yl)-2-(propylsulfonyl)-N-(2-sulfamoylethyl)acetamide] | > 8.00 | > 8.00 | – | –
NS(=O)(=O)CCNC(=O)C(c1nc2ccc(-c3ccc(C(=O)N4CCOCC4)cc3)cc2s1)S(=O)(=O)CCC(F)(F)F (centres unmarked) [Example B108, 2-(6-(4-(4-morpholinyl-carbonyl)phenyl)-1,3-benzothiazol-2-yl)-N-(2-sulfamoylethyl)-2-((3,3,3-trifluoropropyl)sul-fonyl)acetamide] | 7.64 | > 8.00 | – | –
CC(C)CS(=O)(=O)C(C(=O)NCCS(N)(=O)=O)c1nc2ccc(-c3ccc(C(=O)N4CCOCC4)cc3)cc2s1 (centres unmarked) [Example B109, 2-(isobutylsulfonyl)-2-(6-(4-(4-morpholinyl-carbonyl)phenyl)-1,3-benzothiazol-2-yl)-N-(2-sulfamoylethyl)acetamide] | 6.72 | > 8.00 | – | –
COCCNC(=O)c1ccc(-c2ccc3nc(C(C(=O)NCCS(N)(=O)=O)S(=O)(=O)CCC(F)(F)F)sc3c2)cc1 (centres unmarked) [Example B110, N-(2-methoxyethyl)-4-(2-(2-oxo-2-((2-sulfamoyl-ethyl)amino)-1-((3,3,3-trifluoropropyl)sulfonyl)eth-yl)-1,3-benzothiazol-6-yl)benzamide] | 6.74 | > 8.00 | – | –
NS(=O)(=O)CCNC(=O)C(c1nc2ccc(-c3ccc(C(=O)N4CCOCC4)cc3)cc2s1)S(=O)(=O)CC1CC1 (centres unmarked) [Example B111, 2-((cyclopropylmethyl)sul-fonyl)-2-(6-(4-(4-morpholinylcarbonyl)phen-yl)-1,3-benzothiazol-2-yl)-N-(2-sulfamoylethyl)a-cetamide] | 5.84 | > 8.00 | – | –
COCCNC(=O)c1ccc(-c2ccc3nc(C(C(=O)NCCS(N)(=O)=O)S(=O)(=O)Cc4ccc(F)cc4)sc3c2)cc1 (centres unmarked) [Example B112, 4-(2-(1-((4-fluorobenzyl)sul-fonyl)-2-oxo-2-((2-sulfamoylethyl)amino)eth-yl)-1,3-benzothiazol-6-yl)-N-(2-methoxyethyl)ben-zamide] | 5.08 | > 8.00 | – | –
